Assay results published in patent publication US20130202698A1 (NANJING SANHOME PHARMACEUTICAL CO., LTD., priority 2005, published 2013).
Like-named read-outs stand apart in the source and are kept apart here. Marks after values point to notes of the source that are not given here.

Columns and labels:
[1] = system: spontaneous activities of mice; settings: both, mouse, in vivo, 3 mg/kg
Method: Mice weighing 18-22 g, half male and half female, were placed in the laboratory 24 hours before the test to adapt to the environment. The room temperature was controlled at 24±2° C. Animals were fasted for 8 hours before testing, and then placed in a transparent cage. The number of spontaneous activities of mice was counted by an automatic device (model XZ-4 by Drug Research Institute of China Academy of Medical Sciences). Mice were pre-screened by counting their spontaneous activities for five minutes and unqualified mice were excluded. A total of 110 mice were selected and divided into 11 groups with 10 mice in each group.
Chlorpromazine (3 mg/kg) was used as the positive control. The dose volume was 0.2 mL/10 gram and infusion rate was 0.2 mL/10 seconds.

[2] = system: motor balance and coordination; settings: both, mouse, in vivo, 3 mg/kg
Method: Motor balance and coordination were tested using a modified beam walking method. Mice were put on a smooth beam tilted at an angle of 70 degree. Mice passed the test by standing on the beam for 0.5 minute without falling off. All the mice were pre-screened before the studies, and a total of 110 mice were selected by passing the beam test in 3 consecutive tries. The selected mice were divided into 11 groups with 10 mice in each group (half male and half female). At certain time points after drug administration, mice were tested on the beam for 3 consecutive times. A mouse was counted as failing to the test if it fell off the beam for 2 or more times.
The dose volume was 0.2 mL/10 gram and infusion rate was 0.2 mL/10 seconds. Chlorpromazine was used as the positive control.

[3] = system: Remefline-induced convulsion; experiment: Anticonvulsant effects on Remefline-induced convulsion in mice; format: in vivo; settings: 2 mg/kg, positive control
Method: In one experiment, the anticonvulsant effects of levo- and dextro-ornidazole against drug-induced convulsions in mice were compared. In four different animal convulsion models, mice were treated by four different seizure-inducing agents, including Remefline, Strychnine, isoniazid, thiosemicarbazide. Levo- or dextro-ornidazole was administered along with the seizure-inducing agents, and several outcomes were measured, including rate of convulsion, mortality rate, time to convulsion (latency), and time to death. Diazepam was used as a positive anticonvulsant control.
(§1) Mice are randomized into 4 treatment groups (n=10 with half male and half female): dextro- or levo-ornidazole (dosage 40, 80, 160 mg/kg), vehicle control group (15% propylene glycol in 0.9% sodium chloride, 20 mL/kg) and the positive control group. Animals are treated with known convulsion-inducing agents, followed by the drug or vehicle control given intravenously. The dose volume is 20 mL/kg with an infusion rate of 0.2 mL/10 seconds.

[4] = system: Strychnine-induced convulsion; experiment: Anticonvulsant effects on Strychnine-induced convulsion in mice; format: in vivo; settings: 2 mg/kg, positive control, n=10
Method: as §1, with “seconds. The anticonvulsant effects are observed and recorded (see Tables 2-6).” for “seconds.”

[5] = system: isoniazid-induced convulsion; experiment: Anticonvulsant effects on isoniazid-induced convulsion in mice; format: in vivo; settings: 2 mg/kg, positive control, Mean ± SD, n=10
Method: as §1, with “seconds. The anticonvulsant effects are observed and recorded (see Tables 2-6).” for “seconds.”

[6] = system: thiosemicarbazide-induced convulsion; experiment: Anticonvulsant effects on thiosemicarbazide-induced convulsion in mice; format: in vivo; settings: 2 mg/kg, positive control, n=10
Method: as §1, with “seconds. The anticonvulsant effects are observed and recorded (see Tables 2-6).” for “seconds.”

righting reflex = experiment: Hypnotic effect, loss of righting reflex; format: in vivo; settings: mice, positive control, 40 mg/kg (Table 9), 10 animals

Compound: CN(C)CCCN1c2ccccc2Sc2ccc(Cl)cc21 [Chlorpromazine]
- Spontaneous Activities (per 5 min) ([1]; 0.5 h): 5 ± 2 per 5 min
- Spontaneous Activities (per 5 min) ([1]; 1 h): 6 ± 4 per 5 min
- Spontaneous Activities (per 5 min) ([1]; 2 h): 13 ± 6 per 5 min
- Spontaneous Activities (per 5 min) ([1]; 3 h): 21 ± 9 per 5 min
- Spontaneous Activities (per 5 min) ([1]; 4 h): 35 ± 9 per 5 min
- Number of Animals Fall Off ([2]; 0.5 h): 10
- Number of Animals Fall Off ([2]; 1 h): 10
- Number of Animals Fall Off ([2]; 2 h): 10
- Number of Animals Fall Off ([2]; 3 h): 9
- Number of Animals Fall Off ([2]; 4 h): 5

Compound: CN1C(=O)CN=C(c2ccccc2)c2cc(Cl)ccc21 [Diazepam]
- Rate of Convulsion ([3]; n=10): 0/10**
- Mortality Rate ([3]; n=10, 2 mg/kg): 0/10**
- Mortality Rate ([3]; n=10, listed as diazepam): 0/10
- Mortality Rate [4]: 0/10**
- Convulsion Latency [5]: 57.4 ± 9.7 min
- Time to Death [5]: 79.0 ± 12.9 min
- Mortality Rate [6]: 0/10**
- Rate of Convulsion [6]: 2/10**

Compound: CCCC(C)C1(CC)C(=O)NC(=O)NC1=O (stereo not shown) [Pentobarbital, Sodium pentobarbital]
- Number of animals Loss of Righting Flex 30 min Post-dose (righting reflex): 10**
